# Results: paper PMC11241262, “Unravelling the Antifibrinolytic Mechanism of Action of the 1,2,3-Triazole Derivatives” (International Journal of Molecular Sciences, 2024)
# Tests used:
# [1] = mostly cardiac surgery patients; ref [21],[29],[36],[37],[38]; cited from earlier work
# plasmin = target: T1, plasmin (Homo sapiens, UniProt P00747); assay: Plasmin activity assay (Plasmin Inhibitor Screening Assay Kit); assay type: biochemical; conditions: for inhibition at 500 µM: 0.5 mM; for inhibition at 5000 µM: 5 mM; for inhibition at 10000 µM: 10 mM; for inhibition at 15000 µM: 15 mM; for inhibition at 20000 µM: 20 mM; for inhibition at 30000 µM: 30 mM; for increase of IC50 of plasmin's catalytic domain compared to IC50 in plasma clot lysis assay: plasma clot lysis IC50 from Bosch-Sanz et al. [43]
# T1 construct: purchased abcam
# Experimental: The potential activity of the studied compounds on the catalytic domain of plasmin was evaluated using the Plasmin Inhibitor Screening Assay Kit (abcam), following the manufacturer’s instructions. Briefly, the assay measures the inhibition of plasmin’s activity by the tested compounds through the cleavage of a fluorogenic peptide substrate. The assay was performed in flat-bottom 96-well plates. Plasmin was pre-incubated with different concentrations of the tested compounds for 10 min at RT prior to the addition of the peptide substrate. Plasmin’s activity was then measured by monitoring the increase in fluorescence intensity over time using a microplate reader (Infinite M Plex, Tecan, Männedorf, Switzerland) at an Ex/Em of 360/450 nm, every minute at 37 °C for 10 min. The slope of each sample was determined using the initial and final fluorescence values and their respective time points. (1) Fluorescence slope=RFU2−RFU1/t2−t1
# The Relative Plasmin Inhibition was calculated according to the manufacturer’s instructions using a control slope with no compound (enzyme control):(2) Relative Plasmin Inhibition%=SlopeControl−SlopeCompound/SlopeControl×100
# [2] = system: whole blood clot formation; assay: Whole blood coagulation assay (clot formation, no exogenous tPA); design: species or system human; conditions: 40 µM, 37 °C, fibrinolysis not triggered
# Experimental: (§1) Blood was obtained by venipuncture from healthy donors after they signed an informed consent form. Blood was transferred into vacuum non-anticoagulant Vacutainer® tubes (BD, Franklin Lakes, NJ, USA). Blood samples were immediately used for the assay after extraction.
# Prior to blood addition, 20 µL of the evaluated compounds was added to glass tubes, in a final concentration of 40 µM. As a control clot, 20 µL of Tris HCl buffer with no compound was used. Next, 800 µL of blood was transferred to each tube followed by casual shaking to ensure proper mixing. Tubes were incubated at 37 °C for 30 min to allow clot formation and posterior lysis. Blood clotting and lysis were visually monitored and photographs were taken after 30 min.
# whole blood clots [3] = assay: Whole blood dosage (effective antifibrinolytic dosage, tPA-triggered clot lysis); design: species or system human; conditions: 10 µg/mL tPA, 37 °C
# Experimental: as §1
# Glass tubes were prepared with 20 µL of a mixture of tPA, in a final concentration of 10 µg/mL, and the evaluated compounds, in a final concentration of 10, 20, 40, or 60 µM in Tris HCl buffer. A control clot was obtained with 20 µL of tPA with no compound. Then, 800 µL of blood was transferred to each tube and tubes were monitored for clot formation and lysis. The assay was performed with casual shaking. […] The ex vivo effective dosage for each compound was determined by their ability to inhibit complete clot degradation. Photographs were taken after 24 h of incubation.
# plasminogen = target: T2, plasminogen (Homo sapiens, UniProt P00747); assay: Plasminogen activation assay (conversion of plasminogen into plasmin by tPA in the absence of fibrin); assay type: biochemical; conditions: for concentration at which compound increased tPA's activity by 50%: plasminogen-tPA isolated system, absence of fibrin
# T2 construct: purchased abcam
# Experimental: The conversion rate of plasminogen to plasmin was assessed using the Tissue-Type Plasminogen Activator Activity Assay Kit (abcam), following the manufacturer’s instructions. The assay measures the ability of tPA to activate plasminogen to plasmin in the presence of the tested compounds using a chromogenic substrate.
# A solution of plasminogen and plasmin substrate was mixed with a previously prepared solution of the studied compound and tPA in Tris HCl buffer in a 96-well plate. The final concentration of tPA in each well was 6.8 µg/mL, in a final volume of 100 µL. Absorbance was measured on a microplate reader at a wavelength of 405 nm every minute at 37 °C for 2 h or until the system reached saturation. The absorbance slope of each sample was determined using Equation (3). The Relative Plasminogen Activation (%) for each condition was calculated with Equation (4), using a control without a compound (enzyme control). (4) Relative Plasminogen Activation (%)=SlopeCompound−SlopeControl/SlopeControl×100
# Values were fitted to a linear model using MATLAB R2023a (The Math Works Inc., Natick, MA, USA). Concentrations at which each compound was able to increase plasminogen’s conversion by 50% in comparison to the enzyme control were extracted and compared for the three molecules.
# [4] = target: T3, tissue-type plasminogen activator (tPA) (Homo sapiens, UniProt P00750); assay: tPA activity assay (chromogenic substrate); assay type: biochemical; conditions: for activity on tPA's active site: at the tested concentrations
# T3 construct: purchased abcam
# Experimental: Tris hydrochloride, 1M, pH = 7.5 solution (Thermo Fisher Scientific, Waltham, MA, USA) was used as buffer. […] Recombinant human Tissue Plasminogen Activator (abcam, Cambridge, UK) served as the source of tPA, and was stored at −20 °C until used.
# The assay measures the inhibition of tPA’s catalytic domain by the tested compounds employing a chromogenic substrate. Different concentrations of the studied molecules were incubated with tPA in a 96-well plate at 37 °C for 10 min. […] After, 20 μL of tPA’s substrate was added to each well. […] The slope for each assay was obtained from the initial and final absorbance values and their respective time points, or until complete substrate cleavage was achieved. (3) Absorbance slope=Abs2−Abs1/t2−t1
# The Relative tPA Inhibition for each condition was calculated using Equation (2). Then, the Relative tPA Activity (%) was calculated by subtracting the relative tPA inhibition of each concentration from the total activity of the enzyme, obtained from a control without a compound.
# [5] = ref [28],[29],[35]; cited from earlier work
# whole blood clots [6] = assay: Whole blood clot lysis assay (D-dimer ELISA); design: species or system human; conditions: 20 µM, 10 µg/mL tPA
# Experimental: as §1
# The quantification of D-dimer released during clot lysis was performed using the human D-dimer ELISA kit (Thermo Fisher Scientific). Directly after extraction, 500 µL of blood was transferred to four different glass tubes and allowed to clot for 10 min at 37 °C. Tubes were incubated at 37 °C for an additional 1 h to enable clot retraction from the walls of the glass tubes [53]. Then, 100 µL of a mixture of tPA and the studied compounds was added on top of each clot. […] As a control clot, 100 µL of tPA without compound in Tris HCl buffer was added. Tubes were incubated at 37 °C and, at time points of 5 min, 2, 4, 7, and 24 h, samples of each tube were extracted for D-dimer quantification. After gentle shaking of the tubes, 5 µL of the supernatant from each tube was pipetted into Eppendorf tubes and stored at −20 °C until assayed. The ELISA assay was performed as described by the manufacturer’s instructions and absorbance was read in a microplate reader at the wavelengths of 450 nm and 550 nm. […]
# [7] = read-out: percentage of plasmin's inhibition
# T1 sequence (P00747 97-580 limits assumed): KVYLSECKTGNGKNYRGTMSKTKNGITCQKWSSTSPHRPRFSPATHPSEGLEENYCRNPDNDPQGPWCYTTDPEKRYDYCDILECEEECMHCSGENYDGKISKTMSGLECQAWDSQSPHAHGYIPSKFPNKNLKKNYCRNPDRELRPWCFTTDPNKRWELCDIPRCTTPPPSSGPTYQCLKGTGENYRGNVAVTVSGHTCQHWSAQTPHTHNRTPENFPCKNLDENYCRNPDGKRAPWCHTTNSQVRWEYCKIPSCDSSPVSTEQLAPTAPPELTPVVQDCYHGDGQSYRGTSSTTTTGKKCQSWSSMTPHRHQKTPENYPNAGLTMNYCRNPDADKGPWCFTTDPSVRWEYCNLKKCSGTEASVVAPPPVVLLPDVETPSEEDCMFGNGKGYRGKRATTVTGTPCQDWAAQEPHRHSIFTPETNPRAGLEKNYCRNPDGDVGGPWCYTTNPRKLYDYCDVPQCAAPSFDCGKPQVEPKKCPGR
# T1 sequence (P00747 581-810 limits assumed): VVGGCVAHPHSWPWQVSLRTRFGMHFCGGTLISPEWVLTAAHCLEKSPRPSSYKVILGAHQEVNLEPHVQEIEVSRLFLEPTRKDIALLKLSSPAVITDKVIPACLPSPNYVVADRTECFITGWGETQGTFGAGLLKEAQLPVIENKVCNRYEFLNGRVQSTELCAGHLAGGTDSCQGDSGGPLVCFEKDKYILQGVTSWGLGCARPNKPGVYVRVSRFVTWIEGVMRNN
# T2 sequence (P00747 20-810 limits assumed): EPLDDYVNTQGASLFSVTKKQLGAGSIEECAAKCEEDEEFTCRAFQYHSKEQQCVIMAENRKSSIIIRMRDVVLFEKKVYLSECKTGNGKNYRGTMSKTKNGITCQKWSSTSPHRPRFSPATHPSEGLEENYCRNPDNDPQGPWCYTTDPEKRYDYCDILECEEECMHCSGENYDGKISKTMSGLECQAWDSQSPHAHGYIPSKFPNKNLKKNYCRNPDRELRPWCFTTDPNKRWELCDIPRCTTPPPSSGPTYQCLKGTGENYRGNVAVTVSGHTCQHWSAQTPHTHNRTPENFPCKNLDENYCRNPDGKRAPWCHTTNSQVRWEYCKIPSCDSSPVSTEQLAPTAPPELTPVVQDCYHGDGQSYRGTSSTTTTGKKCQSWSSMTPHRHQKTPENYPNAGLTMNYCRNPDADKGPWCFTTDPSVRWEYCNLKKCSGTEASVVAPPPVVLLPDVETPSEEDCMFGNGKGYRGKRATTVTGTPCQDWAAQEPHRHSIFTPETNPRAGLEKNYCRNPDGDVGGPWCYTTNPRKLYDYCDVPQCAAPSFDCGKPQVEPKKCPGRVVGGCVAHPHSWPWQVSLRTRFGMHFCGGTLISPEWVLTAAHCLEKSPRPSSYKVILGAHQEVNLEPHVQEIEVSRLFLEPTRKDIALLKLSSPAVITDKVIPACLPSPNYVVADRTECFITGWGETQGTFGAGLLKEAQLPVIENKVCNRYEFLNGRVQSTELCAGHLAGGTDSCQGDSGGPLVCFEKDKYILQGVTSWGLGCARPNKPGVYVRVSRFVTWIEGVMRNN
# T3 sequence (P00750 36-562): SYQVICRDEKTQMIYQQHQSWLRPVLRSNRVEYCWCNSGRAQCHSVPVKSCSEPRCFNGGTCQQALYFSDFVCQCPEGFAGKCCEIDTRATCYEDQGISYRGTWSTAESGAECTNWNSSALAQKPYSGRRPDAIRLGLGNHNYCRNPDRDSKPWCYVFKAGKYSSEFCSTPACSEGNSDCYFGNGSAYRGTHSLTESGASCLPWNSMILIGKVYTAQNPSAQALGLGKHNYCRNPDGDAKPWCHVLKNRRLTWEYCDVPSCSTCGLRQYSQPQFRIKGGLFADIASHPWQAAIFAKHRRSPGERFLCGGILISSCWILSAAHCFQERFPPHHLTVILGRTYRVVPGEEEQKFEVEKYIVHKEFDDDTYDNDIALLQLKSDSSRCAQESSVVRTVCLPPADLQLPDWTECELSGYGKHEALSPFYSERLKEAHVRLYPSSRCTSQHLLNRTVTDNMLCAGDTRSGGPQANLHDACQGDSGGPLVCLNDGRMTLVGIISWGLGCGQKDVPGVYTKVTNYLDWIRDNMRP
inhibition at 500 µM (plasmin; [7]),inhibition at 5000 µM (plasmin; [7]),inhibition at 10000 µM (plasmin; [7]),inhibition at 15000 µM (plasmin; [7]),inhibition at 20000 µM (plasmin; [7]),inhibition at 30000 µM (plasmin; [7]),increase of IC50 of plasmin's catalytic domain compared to IC50 in plasma clot lysis assay (plasmin),concentration at which compound increased tPA's activity by 50% (plasminogen),percentage of tPA's activity ([4]; 0.5 mM),percentage of tPA's activity ([4]; 1 mM),percentage of tPA's activity ([4]; 5 mM),percentage of tPA's activity ([4]; 10 mM),percentage of tPA's activity ([4]; 15 mM),activity on tPA's active site [4],SMILES,effect on clot formation [2],effective dosage (concentration preventing complete clot degradation after 24 h) (whole blood clots [3]),other results
2.61%,12.3%,22.4%,28%,29.1%,53.1%,1000 fold,283.01 µM,92.08%,89.90%,87.18%,87.33%,84.84%,no activity,"NC[C@H]1CC[C@H](C(=O)O)CC1 [TXA, tranexamic acid, reference compound]",do not have any effect,60 µM,"increased incidence of postoperative seizures [1]: 7 fold; inhibition at 50000 µM (plasmin; 50 mM, read-out: percentage of plasmin's inhibition): 59.2%; cerebrospinal fluid concentration as share of plasma concentration [5]: approximately 10%"
0.56%,4.3%,7.36%,11.6%,48%,76.6%,1000 fold,4.67 µM,96.53%,94.21%,96.95%,91.20%,101.89%,no activity,O=c1[nH]c(-c2cn(C3CCNCC3)nn2)no1 [compound 1],do not have any effect,10 µM,IC50 (plasmin; inhibition of plasmin's cleavage of a synthetic substrate by 50%): 20.6 ± 0.78 mM; potency relative to TXA in catalyzing plasminogen's activation by tPA (plasminogen; from concentration enhancing tPA's activity by 50%): more than 50 times; improvement in antifibrinolytic activity over TXA (D-dimer quantification) (whole blood clots [6]; whole blood): more than 2 fold; D-dimer release lower than for compound 5 (whole blood clots [6]; timepoint 24 h): around 35%
